pEC50, pIC50: −log10 of the molar value.
Legend:
[1] = test system: human PBMCs; experiment: Human PBMC TNF-α response to endotoxin (ELISA); format: cell-based; details: 0.1 μg/ml LPS 16 h, read-out: EC50 for the inhibition of the human PBMC TNF-α response to endotoxin, ave. ± S.D.
Protocol: Human PBMCs (Astarte Biologics, Redmond, Wash.) were seeded at 2e6 cells/ml in RPMI 1640 containing 10% (v/v) charcoal-dextran treated, heat inactivated FBS (Omega Scientific, Tarzana, Calif.), 0.05 mM 2-Mercaptoethanol (Sigma-Aldrich, St. Louis, Mo.), and 1×Pen/Strep Amphotericin B (Lonza, Allendale, N.J.). Cells were pre-treated with test compounds (10 μM down by ⅕ in a 4-point serial dilution series) for 1 h at 37° C. in a humidified atmosphere at 5% CO2. Cells were then stimulated with 0.1 μg/ml lipopolysaccharide (LPS) from E. coli 0111:B4 (EMD Millipore, Billerica, Mass.) for 16 h at 37° C. in a humidified atmosphere at 5% CO2. Supernatant was collected and a 25-fold dilution was analyzed for TNF-α concentration using an ELISA kit from Life Technologies (Grand Island, N.Y.) according to the manufacturer's instructions. Absorbance at 450 nm was read using the Synergy 2 multi-detection microplate reader (BioTek Instruments, Winooski, Vt.).

[2] = target: T1, JAK1 (Homo sapiens, UniProt P23458); experiment: Probe-based (AX9989) kinase profiling in Jurkat lysate: JAK1; format: binding; details: read-out: Kinase inhibition % at indicated screening concentration: JAK1; for inhibition at 0.1 µM: screening concentration 0.1 μM; for inhibition at 1 µM: screening concentration 1.0 μM
T1 construct: screened for activity against several kinases in Jurkat cells; endogenous in cells; host or cells: Jurkat cell lysate
Summary of the method: (§1)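 Compounds were pre-incubated for 15 min at room temperature with gel-filtered Jurkat cell lysate supplemented with 20 mM MnCl2, after which the acyl phosphate ATP probe AX9989 was added at 5 μM final. Labeled active-site peptides were enriched after tryptic digestion and measured by LC/MS, with percent inhibition taken relative to samples without compound.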

[3] = target: T2, AurA (Homo sapiens, UniProt O14965); experiment: Probe-based (AX9989) kinase profiling in Jurkat lysate: AurA; format: binding; details: read-out: Kinase inhibition % at indicated screening concentration: AurA; for inhibition at 0.1 µM: screening concentration 0.1 μM; for inhibition at 1 µM: screening concentration 1.0 μM
T2 construct: screened for activity against several kinases in Jurkat cells; endogenous in cells; host or cells: Jurkat cell lysate
T2 sequence (O14965 1-403): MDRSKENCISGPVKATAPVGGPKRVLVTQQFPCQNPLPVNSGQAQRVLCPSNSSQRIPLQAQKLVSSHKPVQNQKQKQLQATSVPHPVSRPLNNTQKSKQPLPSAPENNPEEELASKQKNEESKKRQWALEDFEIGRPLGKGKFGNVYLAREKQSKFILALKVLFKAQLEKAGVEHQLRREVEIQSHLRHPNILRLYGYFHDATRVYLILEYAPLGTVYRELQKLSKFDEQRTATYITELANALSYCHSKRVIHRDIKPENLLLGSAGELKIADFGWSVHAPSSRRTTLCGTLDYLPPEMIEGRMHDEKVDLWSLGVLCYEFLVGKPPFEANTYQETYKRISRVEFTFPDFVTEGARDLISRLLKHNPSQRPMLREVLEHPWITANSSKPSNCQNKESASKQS
Summary of the method: as §1

[4] = test system: ABL or ARG; experiment: Probe-based (AX9989) kinase profiling in Jurkat lysate: ABL or ARG; format: binding
Summary of the method: as §1

[5] = target: T3, ERK5 (Homo sapiens, UniProt Q13164); experiment: Probe-based (AX9989 acyl phosphate ATP probe) kinase profiling in Jurkat lysate: ERK5; format: binding; details: for pIC50: calculated from percent inhibition of AX9989 labeling and the screening concentration, Jurkat lysate; for inhibition at 0.1 µM: screening concentration 0.1 μM; for inhibition at 0.1 µM / inhibition at 1 µM: read-out: Kinase inhibition % at indicated screening concentration: ERK5; for inhibition at 1 µM: screening concentration 1.0 μM
T3 construct: screened for activity against several kinases in Jurkat cells; endogenous in cells; host or cells: Jurkat cell lysate
Summary of the method: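 Gel-filtered Jurkat lysate (5 mg/ml, 20 mM MnCl2) preincubated 15 min at room temperature with compound, then labelled with 5 μM AX9989 acyl phosphate ATP probe. Probe-labelled ERK5 active-site peptides quantified by LC/MS after trypsin digestion and streptavidin capture; IC50 calculated from percent inhibition at the screening concentration.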

[6] = test system: AMPKa1 or AMPKa2; experiment: Probe-based (AX9989) kinase profiling in Jurkat lysate: AMPKa1 or AMPKa2; format: binding
Summary of the method: as §1

[7] = target: T4, TAO2 (Homo sapiens, UniProt Q9UL54); experiment: Probe-based (AX9989) kinase profiling in Jurkat lysate: TAO2; format: binding; details: read-out: Kinase inhibition % at indicated screening concentration: TAO2; for inhibition at 0.1 µM: screening concentration 0.1 μM; for inhibition at 1 µM: screening concentration 1.0 μM
T4 construct: screened for activity against several kinases in Jurkat cells; endogenous in cells; host or cells: Jurkat cell lysate
T4 sequence (Q9UL54 1-1235): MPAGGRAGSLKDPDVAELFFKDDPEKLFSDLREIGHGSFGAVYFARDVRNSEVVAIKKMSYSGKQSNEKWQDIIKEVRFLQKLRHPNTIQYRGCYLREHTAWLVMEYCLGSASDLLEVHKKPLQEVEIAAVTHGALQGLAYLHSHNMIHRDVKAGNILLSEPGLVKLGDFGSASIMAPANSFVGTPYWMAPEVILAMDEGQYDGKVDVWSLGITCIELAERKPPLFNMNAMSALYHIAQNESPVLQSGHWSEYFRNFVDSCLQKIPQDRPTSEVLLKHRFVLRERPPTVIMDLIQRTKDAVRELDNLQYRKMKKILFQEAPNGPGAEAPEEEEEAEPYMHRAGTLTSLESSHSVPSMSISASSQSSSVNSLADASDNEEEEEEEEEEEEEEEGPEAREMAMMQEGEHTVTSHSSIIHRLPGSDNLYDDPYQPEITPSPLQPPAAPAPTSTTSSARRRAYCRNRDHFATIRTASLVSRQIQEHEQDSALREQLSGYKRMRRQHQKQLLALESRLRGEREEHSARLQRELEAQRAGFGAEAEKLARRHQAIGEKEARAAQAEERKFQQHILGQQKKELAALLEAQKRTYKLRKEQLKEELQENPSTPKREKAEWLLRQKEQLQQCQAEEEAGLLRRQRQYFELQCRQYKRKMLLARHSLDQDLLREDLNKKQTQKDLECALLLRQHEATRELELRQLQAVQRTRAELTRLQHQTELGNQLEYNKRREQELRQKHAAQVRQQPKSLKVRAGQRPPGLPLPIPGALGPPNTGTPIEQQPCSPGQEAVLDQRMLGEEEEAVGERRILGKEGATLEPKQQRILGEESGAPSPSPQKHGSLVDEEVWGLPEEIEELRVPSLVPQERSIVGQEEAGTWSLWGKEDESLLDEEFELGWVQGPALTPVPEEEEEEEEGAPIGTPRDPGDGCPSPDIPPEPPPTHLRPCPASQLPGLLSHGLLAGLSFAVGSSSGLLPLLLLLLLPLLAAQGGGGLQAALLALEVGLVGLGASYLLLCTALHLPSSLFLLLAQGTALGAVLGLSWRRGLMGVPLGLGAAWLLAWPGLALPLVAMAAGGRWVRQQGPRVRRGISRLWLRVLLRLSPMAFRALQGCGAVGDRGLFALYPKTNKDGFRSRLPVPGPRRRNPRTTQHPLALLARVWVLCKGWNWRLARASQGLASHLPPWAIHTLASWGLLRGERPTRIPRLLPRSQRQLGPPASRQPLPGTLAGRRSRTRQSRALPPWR
Summary of the method: as §1

[8] = test system: AurB or AurC; experiment: Probe-based (AX9989) kinase profiling in Jurkat lysate: AurB or AurC; format: binding
Summary of the method: as §1

[9] = target: T5, ACK (Homo sapiens, UniProt Q07912); experiment: Probe-based (AX9989) kinase profiling in Jurkat lysate: ACK; format: binding; details: read-out: Kinase inhibition % at indicated screening concentration: ACK; for inhibition at 0.1 µM: screening concentration 0.1 μM; for inhibition at 1 µM: screening concentration 1.0 μM
T5 construct: screened for activity against several kinases in Jurkat cells; endogenous in cells; host or cells: Jurkat cell lysate
Summary of the method: as §1

T3 sequence (Q13164 whole entry): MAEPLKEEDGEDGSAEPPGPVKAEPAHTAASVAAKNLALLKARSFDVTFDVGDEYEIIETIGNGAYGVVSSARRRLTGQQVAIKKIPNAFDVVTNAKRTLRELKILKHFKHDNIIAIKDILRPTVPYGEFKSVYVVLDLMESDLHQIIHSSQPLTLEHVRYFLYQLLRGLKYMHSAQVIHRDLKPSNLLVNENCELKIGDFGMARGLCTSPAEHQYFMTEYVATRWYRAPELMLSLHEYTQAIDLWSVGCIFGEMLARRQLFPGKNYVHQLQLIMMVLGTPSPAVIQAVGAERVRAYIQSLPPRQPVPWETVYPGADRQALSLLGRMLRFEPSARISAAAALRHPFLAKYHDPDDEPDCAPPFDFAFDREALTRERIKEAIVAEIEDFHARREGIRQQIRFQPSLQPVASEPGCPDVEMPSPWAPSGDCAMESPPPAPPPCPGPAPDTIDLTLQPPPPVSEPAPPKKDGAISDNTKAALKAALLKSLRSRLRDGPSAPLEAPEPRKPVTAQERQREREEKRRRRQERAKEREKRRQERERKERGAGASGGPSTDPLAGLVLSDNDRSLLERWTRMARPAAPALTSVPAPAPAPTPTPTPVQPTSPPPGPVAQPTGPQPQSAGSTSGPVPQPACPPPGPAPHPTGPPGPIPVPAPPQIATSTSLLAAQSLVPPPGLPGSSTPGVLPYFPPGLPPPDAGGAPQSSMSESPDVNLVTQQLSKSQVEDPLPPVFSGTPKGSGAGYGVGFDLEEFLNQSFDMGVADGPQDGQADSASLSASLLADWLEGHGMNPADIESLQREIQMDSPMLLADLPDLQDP
T5 sequence (Q07912 whole entry): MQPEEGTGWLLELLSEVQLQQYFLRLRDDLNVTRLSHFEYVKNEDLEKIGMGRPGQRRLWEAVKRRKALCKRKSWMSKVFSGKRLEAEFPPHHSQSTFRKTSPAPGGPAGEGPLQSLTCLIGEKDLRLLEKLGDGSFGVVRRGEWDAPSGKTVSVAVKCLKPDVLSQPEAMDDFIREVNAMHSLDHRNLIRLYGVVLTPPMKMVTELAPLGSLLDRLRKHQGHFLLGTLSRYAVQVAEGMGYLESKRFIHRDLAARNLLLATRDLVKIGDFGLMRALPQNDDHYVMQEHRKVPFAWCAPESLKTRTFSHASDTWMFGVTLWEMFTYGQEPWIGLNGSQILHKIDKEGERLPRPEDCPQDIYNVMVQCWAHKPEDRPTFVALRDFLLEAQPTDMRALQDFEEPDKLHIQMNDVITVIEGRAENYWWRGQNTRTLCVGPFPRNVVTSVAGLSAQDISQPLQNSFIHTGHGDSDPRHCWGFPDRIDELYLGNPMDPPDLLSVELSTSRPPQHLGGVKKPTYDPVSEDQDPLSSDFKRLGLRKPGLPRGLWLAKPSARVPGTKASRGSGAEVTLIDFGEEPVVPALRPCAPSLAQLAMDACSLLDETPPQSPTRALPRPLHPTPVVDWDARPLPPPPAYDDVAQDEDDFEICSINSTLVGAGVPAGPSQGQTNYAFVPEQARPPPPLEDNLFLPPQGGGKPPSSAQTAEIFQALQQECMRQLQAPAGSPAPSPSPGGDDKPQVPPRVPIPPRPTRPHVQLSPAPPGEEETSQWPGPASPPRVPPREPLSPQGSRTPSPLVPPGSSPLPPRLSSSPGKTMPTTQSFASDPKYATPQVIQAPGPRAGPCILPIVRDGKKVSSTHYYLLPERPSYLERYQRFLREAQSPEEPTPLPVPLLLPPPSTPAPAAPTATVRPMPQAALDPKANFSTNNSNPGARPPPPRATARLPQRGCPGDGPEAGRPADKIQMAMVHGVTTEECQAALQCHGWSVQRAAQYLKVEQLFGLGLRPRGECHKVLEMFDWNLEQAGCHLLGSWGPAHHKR
T1 sequence (P23458 whole entry): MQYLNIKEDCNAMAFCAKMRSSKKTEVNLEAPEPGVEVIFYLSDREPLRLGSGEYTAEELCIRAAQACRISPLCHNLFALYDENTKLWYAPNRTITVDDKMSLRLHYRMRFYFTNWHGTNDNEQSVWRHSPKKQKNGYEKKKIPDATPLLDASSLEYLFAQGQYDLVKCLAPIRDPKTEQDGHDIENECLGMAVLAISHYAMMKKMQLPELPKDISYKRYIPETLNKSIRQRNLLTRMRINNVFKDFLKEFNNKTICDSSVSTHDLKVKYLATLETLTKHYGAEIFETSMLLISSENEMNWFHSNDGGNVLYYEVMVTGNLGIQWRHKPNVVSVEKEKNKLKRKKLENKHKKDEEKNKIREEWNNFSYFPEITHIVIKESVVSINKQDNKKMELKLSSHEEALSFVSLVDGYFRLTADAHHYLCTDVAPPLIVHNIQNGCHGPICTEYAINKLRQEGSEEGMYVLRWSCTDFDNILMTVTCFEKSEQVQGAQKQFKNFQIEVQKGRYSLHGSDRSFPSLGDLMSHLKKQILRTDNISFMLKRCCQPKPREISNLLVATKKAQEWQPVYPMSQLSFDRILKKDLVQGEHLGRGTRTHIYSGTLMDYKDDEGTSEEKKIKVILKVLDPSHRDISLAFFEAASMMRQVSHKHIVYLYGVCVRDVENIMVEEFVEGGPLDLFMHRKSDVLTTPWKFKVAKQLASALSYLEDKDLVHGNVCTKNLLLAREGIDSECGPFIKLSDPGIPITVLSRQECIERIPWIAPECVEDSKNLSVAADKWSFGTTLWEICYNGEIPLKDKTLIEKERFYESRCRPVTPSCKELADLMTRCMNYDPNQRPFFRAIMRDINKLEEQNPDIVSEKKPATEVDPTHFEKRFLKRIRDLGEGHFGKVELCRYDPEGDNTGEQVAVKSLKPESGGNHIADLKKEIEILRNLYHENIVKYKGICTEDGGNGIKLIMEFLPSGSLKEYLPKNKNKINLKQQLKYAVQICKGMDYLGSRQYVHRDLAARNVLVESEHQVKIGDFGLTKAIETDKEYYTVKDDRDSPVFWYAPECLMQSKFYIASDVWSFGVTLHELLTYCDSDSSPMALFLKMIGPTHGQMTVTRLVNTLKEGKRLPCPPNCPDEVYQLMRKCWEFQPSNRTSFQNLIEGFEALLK

inhibition at 0.1 µM [2] | inhibition at 0.1 µM [3] | Kinase inhibition % at indicated screening concentration: ABL or ARG ([4]; screening concentration 0.1 μM) | pIC50 [5] | inhibition at 0.1 µM [5] | Kinase inhibition % at indicated screening concentration: AMPKa1 or AMPKa2 ([6]; screening concentration 0.1 μM) | inhibition at 0.1 µM [7] | Kinase inhibition % at indicated screening concentration: AurB or AurC ([8]; screening concentration 0.1 μM) | inhibition at 0.1 µM [9] | inhibition at 1 µM [2] | inhibition at 1 µM [3] | Kinase inhibition % at indicated screening concentration: ABL or ARG ([4]; screening concentration 1.0 μM) | inhibition at 1 µM [5] | Kinase inhibition % at indicated screening concentration: AMPKa1 or AMPKa2 ([6]; screening concentration 1.0 μM) | inhibition at 1 µM [7] | Kinase inhibition % at indicated screening concentration: AurB or AurC ([8]; screening concentration 1.0 μM) | inhibition at 1 µM [9] | Structure (SMILES) | pEC50 [1]
≤ 35% | ≤ 35% | E (E is ≦35%) | 6.30 to 7.00 | 35 to 50% | E (E is ≦35%) | ≤ 35% | E (E is ≦35%) | ≤ 35% | – | – | – | – | – | – | – | – | CCOc1cc(C(=O)N2CCC(c3c[nH]cn3)CC2)ccc1Nc1cc2c(cn1)N(C)C(=O)c1ccccc1N2C [Compound 35] | 5.22
– | – | – | 6.30 to 7.00 | – | – | – | – | – | ≤ 35% | ≤ 35% | E (E is ≦35%) | 75 to 90% | E (E is ≦35%) | ≤ 35% | E (E is ≦35%) | ≤ 35% | COc1ccc(Nc2cc3c(cn2)N(C)C(=O)c2ccccc2N3C)c(C)c1 [Compound 41] | 5.12
≤ 35% | ≤ 35% | E (E is ≦35%) | 6.30 to 7.00 | 35 to 50% | E (E is ≦35%) | ≤ 35% | E (E is ≦35%) | ≤ 35% | – | – | – | – | – | – | – | – | CCOc1cc(C(=O)N2CCN(C(=O)OC(C)(C)C)C[C@@H]2C)ccc1Nc1cc2c(cn1)N(C)C(=O)c1ccccc1N2C [Compound 50] | 5.59
– | – | – | 6.30 to 7.00 | – | – | – | – | – | ≤ 35% | ≤ 35% | E (E is ≦35%) | 75 to 90% | E (E is ≦35%) | ≤ 35% | E (E is ≦35%) | ≤ 35% | Cc1cc(CO)ccc1Nc1cc2c(cn1)N(C)C(=O)c1ccccc1N2C [Compound 85, 3-(4-(hydroxymethyl)-2-methylphenylamino)-5,11-dimethyl-5H-benzo[e]pyrido[3,4-b][1,4]diazepin-10(11H)-one] | 5.87
– | – | – | < 6.30 | – | – | – | – | – | ≤ 35% | ≤ 35% | E (E is ≦35%) | ≤ 35% | E (E is ≦35%) | ≤ 35% | E (E is ≦35%) | ≤ 35% | CCOc1cc(C)ccc1Nc1cc2c(cn1)N(C)C(=O)c1ccccc1N2C [Compound 95] | 5.43

The remaining lines, values behind:

Structure (SMILES) | inhibition at 0.1 µM [2] | inhibition at 0.1 µM [3] | Kinase inhibition % at indicated screening concentration: ABL or ARG ([4]; screening concentration 0.1 μM) | pIC50 [5] | inhibition at 0.1 µM [5] | Kinase inhibition % at indicated screening concentration: AMPKa1 or AMPKa2 ([6]; screening concentration 0.1 μM) | inhibition at 0.1 µM [7] | Kinase inhibition % at indicated screening concentration: AurB or AurC ([8]; screening concentration 0.1 μM) | inhibition at 0.1 µM [9] | inhibition at 1 µM [2] | inhibition at 1 µM [3] | Kinase inhibition % at indicated screening concentration: ABL or ARG ([4]; screening concentration 1.0 μM) | inhibition at 1 µM [5] | Kinase inhibition % at indicated screening concentration: AMPKa1 or AMPKa2 ([6]; screening concentration 1.0 μM) | inhibition at 1 µM [7] | Kinase inhibition % at indicated screening concentration: AurB or AurC ([8]; screening concentration 1.0 μM) | inhibition at 1 µM [9] | pEC50 [1]
Cc1c(Nc2cc3c(cn2)N(C)C(=O)c2ccccc2N3C)cnn1C [Compound 59] | – | – | – | 6.30 to 7.00 | – | – | – | – | – | ≤ 35% | ≤ 35% | E (E is ≦35%) | 75 to 90% | E (E is ≦35%) | ≤ 35% | E (E is ≦35%) | ≤ 35% | 5.23
CCOc1cc(C(=O)N2CCC(N3CCN(C)CC3)CC2)ccc1Nc1cc2c(cn1)N(C)C(=O)C1CCCCC1N2C (stereo not drawn) [Compound 68] | – | – | – | < 6.30 | – | – | – | – | – | ≤ 35% | ≤ 35% | E (E is ≦35%) | ≤ 35% | E (E is ≦35%) | ≤ 35% | E (E is ≦35%) | ≤ 35% | < 5.00
Cc1cc(C#N)ccc1Nc1cc2c(cn1)N(C)C(=O)c1ccccc1N2C [Compound 89] | – | – | – | 6.30 to 7.00 | – | – | – | – | – | ≤ 35% | ≤ 35% | E (E is ≦35%) | 50 to 75% | E (E is ≦35%) | ≤ 35% | E (E is ≦35%) | ≤ 35% | 5.76
COc1cc(C)c(Nc2cc3c(cn2)N(C)C(=O)c2ccccc2N3C)cn1 [Compound 116] | – | – | – | < 6.30 | – | – | – | – | – | ≤ 35% | ≤ 35% | E (E is ≦35%) | 50 to 75% | E (E is ≦35%) | ≤ 35% | E (E is ≦35%) | ≤ 35% | 5.36

Source: US20170008888A1 (KYORIN PHARMACEUTICAL CO., LTD., priority 2014, published 2017)
